This assay relates to differentiated P19 neurons. Kind of assay: Drug screening using differentiated P19 cell assay (neuroprotection against glutamate/glycine). Type of assay: cell-based, murine. The settings on record: for IC50: dose response 0.005-3 μM, 3 mM glutamate + 1 mM glycine, >1 = no maximum within highest dose (3 μM); for % neuroprotection (cell survival relative to control): screened at 1 micromolar, percentage of control cells surviving after 24 hours. As for the experimental part: Commercially available chemical libraries (BioFocus PLC, UK) were screened using the methods described herein. The stock concentration of the compounds was about 400 μM in DMSO. The concentration of compounds used in the primary screen was 1 μM. […] Columns 4-11 received compounds at the following final concentrations (μM): 3, 1.2, 0.48, 0.192, 0.077, 0.031, 0.012 and 0.005. Each row contained a different compound for confirmation. Only rows B-G received compounds, and rows A and H remained untreated. Data are expressed as % neuroprotection=((compound-glutamate average)/(U0126-glutamate average)×100).
Only the 2-pyridinamines are the subject of this invention, although limited data for 4-pyrimidinamines are presented as well. “% Inh” indicates the percentage of control cells surviving after 24 hours, and represents the neuroprotective effect of the compounds screened at 1 micromolar concentration. IC50 relate to data from dose response experiments. […] ND refers to compounds not tested in dose-response experiments. […]

As for `COc1ccc(Nc2cccc(-c3ccc(OC)c(OC)c3)n2)cc1` [Cmpd 130], the IC50 – broadly, the concentration at which inhibition is half-maximal – worked out at 0.85 µM and the “% neuroprotection (cell survival relative to control)” value stood at 96%.

Take `COc1ccc(-c2ccc(Nc3ccc(N4CCOCC4)cc3)nc2)cc1OC` [Cmpd 79]: the IC50 is 0.46 µM and the “% neuroprotection (cell survival relative to control)” value is listed as 110%.

`CCCCCOc1ccc(Nc2ccc(-c3ccccc3OC)cn2)cc1` [Cmpd 14, 2-pyridinamine, 5-(2-methoxyphenyl)-N-[4-(pentyloxy)phenyl]-]: the “% neuroprotection (cell survival relative to control)” value came out at 90%. Also, the IC50 (Mus musculus, Neuron) was 0.22 µM.

Turning to `COc1cc(Nc2ccc(-c3ccc(N4CCN(C(=O)OC(C)(C)C)CC4)cc3)cn2)cc(OC)c1OC` [Cmpd 40], the “% neuroprotection (cell survival relative to control)” value was 77%.

Regarding `COc1cc(Nc2cccc(-c3ccc4c(c3)OCO4)n2)cc(OC)c1OC` [Cmpd 120, 2-pyridinamine, 6-(1,3-benzodioxol-5-yl)-N-(3,4,5-trimethoxyphenyl)-], the “% neuroprotection (cell survival relative to control)” value turned out to be 97%. The IC50 (Mus musculus, Neuron) is 0.05 µM.

Consider `COc1ccc(Nc2ccc(-c3ccc(C)c(C)c3)cn2)cc1` [Cmpd 86], for which the half-inhibitory concentration (IC50) was greater than 1 µM and the “% neuroprotection (cell survival relative to control)” value came out at 80%.

For the compound `COc1cc(Nc2cccc(-c3cc(OC)c(OC)c(OC)c3)n2)cc(OC)c1OC` [Cmpd 112], the IC50 came to 0.9 µM and the “% neuroprotection (cell survival relative to control)” value worked out at 90%.

Consider `c1cc(N2CCOCC2)ccc1Nc1ccc(-c2ccc3c(c2)OCO3)cn1` [Cmpd 30], for which the IC50 was greater than 1 µM and the “% neuroprotection (cell survival relative to control)” value is reported as 84%.

`COc1cc(Nc2cccc(-c3cc4ccccc4o3)n2)cc(OC)c1OC` [Cmpd 110]: the 50% inhibitory concentration (IC50) worked out at 0.14 µM and the “% neuroprotection (cell survival relative to control)” value is 91%.

`CCn1c2ccccc2c2cc(Nc3ccc(-c4ccc(N5CCOCC5)cc4)cn3)ccc21` [Cmpd 77]: the “% neuroprotection (cell survival relative to control)” value came out at 82%.

In the case of `COc1ccc(Nc2cccc(-c3ccccc3Oc3ccccc3)n2)cc1` [Cmpd 101], the “% neuroprotection (cell survival relative to control)” value stood at 78%.

In the case of `COc1cc(Nc2cccc(-c3ccc(F)c(Cl)c3)n2)cc(OC)c1OC` [Cmpd 142], the “% neuroprotection (cell survival relative to control)” value is given as 94%.

With `FC(F)(F)Oc1ccc(-c2ccc(Nc3ccc(N4CCOCC4)cc3)nc2)cc1` [Cmpd 17], the “% neuroprotection (cell survival relative to control)” value was 74%.

With `CCn1c2ccccc2c2cc(Nc3cccc(-c4ccco4)n3)ccc21` [Cmpd 132], the IC50 was greater than 1 µM and the “% neuroprotection (cell survival relative to control)” value is 105%.

As for `CCn1c2ccccc2c2cc(Nc3cccc(-c4cccc(N)c4)n3)ccc21` [Cmpd 99], the IC50 amounted to 0.33 µM and the “% neuroprotection (cell survival relative to control)” value is given as 105%.

Regarding `COc1cc(Nc2cccc(-c3ccc(-c4ccccc4)cc3)n2)cc(OC)c1OC` [Cmpd 121], the IC50 came to 0.65 µM and the “% neuroprotection (cell survival relative to control)” value is 96%.

Consider `COc1ccc(Nc2cccc(C=Cc3ccccc3)n2)c(C)c1OC` [Cmpd 145], for which the IC50 came to 0.28 µM and the “% neuroprotection (cell survival relative to control)” value is given as 96%.

Regarding `COc1ccc(Nc2cccc(-c3ccc(Cl)cc3)n2)cc1` [Cmpd 103], the “% neuroprotection (cell survival relative to control)” value is recorded as 75%.

In the case of `COc1cc(Nc2cccc(-c3cccc(OC(F)(F)F)c3)n2)cc(OC)c1OC` [Cmpd 118, 2-pyridinamine, 6-[3-(trifluoromethoxy)phenyl]-N-(3,4,5-trimethoxyphenyl)-], the “% neuroprotection (cell survival relative to control)” value is recorded as 91%. For the same compound, under “Mus musculus, Neuron”, the IC50 came out at 0.05 µM.

For `CCOc1cccc(-c2ccc(Nc3cc(OC)c(OC)c(OC)c3)nc2)c1` [Cmpd 12, 2-pyridinamine, 5-(3-ethoxyphenyl)-N-(3,4,5-trimethoxyphenyl)-], the “% neuroprotection (cell survival relative to control)” value was 87%. In addition, for the setting “Mus musculus, Neuron”, the IC50 came to 0.047 µM.

Turning to `c1ccc2cc(-c3ccc(Nc4ccc(N5CCOCC5)cc4)nc3)ccc2c1` [Cmpd 25, 2-pyridinamine, N-[4-(4-morpholinyl)phenyl]-5-(2-naphthyl)-], the “% neuroprotection (cell survival relative to control)” value was 100%. Under “Mus musculus, Neuron”, the IC50 was 0.084 µM.

Take `CCn1c2ccccc2c2cc(Nc3cccc(-c4ccc5c(c4)OCO5)n3)ccc21` [Cmpd 139]: the “% neuroprotection (cell survival relative to control)” value was 72%.

For `c1ccc2sc(-c3ccc(Nc4ccc(N5CCOCC5)cc4)nc3)cc2c1` [Cmpd 22, 2-pyridinamine, 5-benzo[b]thien-2-yl-N-[4-(4-morpholinyl)phenyl]-], the “% neuroprotection (cell survival relative to control)” value stood at 98%. Besides, under “Mus musculus, Neuron”, the IC50 is 0.09 µM.

As for `CCCCCOc1ccc(Nc2ccc(-c3ccc4c(c3)OCO4)cn2)cc1` [Cmpd 13, 2-pyridinamine, 5-(1,3-benzodioxol-5-yl)-N-[4-(pentyloxy)phenyl]-], the “% neuroprotection (cell survival relative to control)” value is listed as 98%. Further, under “Mus musculus, Neuron”, the 50% inhibitory concentration (IC50) stood at 0.26 µM.

In the case of `COc1ccccc1-c1ccc(Nc2cc(OC)c(OC)c(OC)c2)nc1` [Cmpd 71], the “% neuroprotection (cell survival relative to control)” value is 77%.

Take `COc1ccc(Nc2ccc(-c3ccc(N4CCOCC4)cc3)cn2)cc1` [Cmpd 83]: the “% neuroprotection (cell survival relative to control)” value was determined as 71%.

For `c1ccc2oc(-c3ccc(Nc4ccc(N5CCOCC5)cc4)nc3)cc2c1` [Cmpd 23], the IC50 was found to be 0.92 µM and the “% neuroprotection (cell survival relative to control)” value was determined as 96%.

Regarding `COc1ccc(Nc2ccc(C=Cc3ccccc3)cn2)c(C)c1` [Cmpd 90], the “% neuroprotection (cell survival relative to control)” value turned out to be 73%.

Take `COc1ccc(Nc2ccc(-c3ccc(O)cc3)cn2)cc1` [Cmpd 2]: the half-inhibitory concentration (IC50) came out at 0.56 µM and the “% neuroprotection (cell survival relative to control)” value is listed as 94%.

Turning to `COc1cc(Nc2cccc(-c3ccc(Cl)cc3)n2)cc(OC)c1OC` [Cmpd 141], the “% neuroprotection (cell survival relative to control)” value was found to be 76%.

As to `Clc1ccc(-c2ccc(Nc3ccc(N4CCOCC4)cc3)nc2)cc1` [Cmpd 29], the IC50 was greater than 1 µM and the “% neuroprotection (cell survival relative to control)” value was found to be 82%.

Take `COc1cc(Nc2cccc(-c3ccc(N4CCOCC4)cc3)n2)cc(OC)c1OC` [Cmpd 106]: the IC50 is 0.66 µM and the “% neuroprotection (cell survival relative to control)” value is reported as 84%.

As to `COc1cc(Nc2cccc(/C=C/c3ccccc3)n2)cc(OC)c1OC` [Cmpd 144, 2-pyridinamine, 6-[(E)-2-phenylethenyl]-N-(3,4,5-trimethoxyphenyl)-], the “% neuroprotection (cell survival relative to control)” value turned out to be 110%. In addition, the IC50 (Mus musculus, Neuron) came out at 0.03 µM.

For `COc1ccccc1-c1ccc(Nc2ccc3c(c2)OCCO3)nc1` [Cmpd 11], the IC50 stood at 0.87 µM and the “% neuroprotection (cell survival relative to control)” value came out at 83%.

Consider `COc1cc(Nc2cccc(-c3ccc(Cl)c(Cl)c3)n2)cc(OC)c1OC` [Cmpd 146], for which the IC50 was found to be 0.32 µM and the “% neuroprotection (cell survival relative to control)” value was 99%.

Turning to `COc1ncc(-c2cccc(Nc3cc(OC)c(OC)c(OC)c3)n2)c(OC)n1` [Cmpd 107], the “% neuroprotection (cell survival relative to control)” value was 71%.

Turning to `FC(F)(F)Oc1ccc(-c2ccc(Nc3ccc4c(c3)OCCO4)nc2)cc1` [Cmpd 4], the IC50 is 0.38 µM and the “% neuroprotection (cell survival relative to control)” value worked out at 86%.

In the case of `CCCCCOc1ccc(Nc2ccc(-c3ccc(N4CCOCC4)cc3)cn2)cc1` [Cmpd 6, 2-pyridinamine, 5-[4-(4-morpholinyl)phenyl]-N-[4-(pentyloxy)phenyl]-], the “% neuroprotection (cell survival relative to control)” value was determined as 83%. Besides, the IC50 (Mus musculus, Neuron) turned out to be 0.22 µM.

Consider `COc1ccc(Nc2cccc(-c3ccc4ccccc4c3)n2)c(C)c1OC` [Cmpd 136], for which the “% neuroprotection (cell survival relative to control)” value stood at 86%. The IC50 (Mus musculus, Neuron) is greater than 1 µM.

For the compound `CCOc1cccc(-c2cccc(Nc3cc(OC)c(OC)c(OC)c3)n2)c1` [Cmpd 114, 2-pyridinamine, 6-(3-ethoxyphenyl)-N-(3,4,5-trimethoxyphenyl)-], the “% neuroprotection (cell survival relative to control)” value was 96%. For the same compound, the IC50 (Mus musculus, Neuron) stood at 0.14 µM.

`Cc1ccc(-c2ccc(Nc3ccc(N4CCOCC4)cc3)nc2)cc1C` [Cmpd 80]: the IC50 was 0.75 µM and the “% neuroprotection (cell survival relative to control)” value was 94%.

For `Clc1cccc(-c2ccc(Nc3ccc(N4CCOCC4)cc3)nc2)c1Cl` [Cmpd 26], the IC50 was greater than 1 µM and the “% neuroprotection (cell survival relative to control)” value was 107%.

For `CCCCCOc1ccc(Nc2ccc(-c3ccc(CCC(=O)O)cc3)cn2)cc1` [Cmpd 10, benzenepropanoic acid, 4-[6-[[4-(pentyloxy)phenyl]amino]-3-pyridinyl]-], the “% neuroprotection (cell survival relative to control)” value came out at 105%. Where the note is “Mus musculus, Neuron”, the IC50 is 0.23 µM.

In the case of `COc1cc(C)c(Nc2cccc(-c3ccc(C)c(C)c3)n2)cc1OC` [Cmpd 127, 2-pyridinamine, N-(4,5-dimethoxy-2-methylphenyl)-6-(3,4-dimethylphenyl)], the “% neuroprotection (cell survival relative to control)” value amounted to 86%. Besides, under “Mus musculus, Neuron”, the IC50 amounted to 0.19 µM.

Regarding `CCn1c2ccccc2c2cc(Nc3cccc(-c4cncc(OC)c4)n3)ccc21` [Cmpd 134], the 50% inhibitory concentration (IC50) is 1.59 µM and the “% neuroprotection (cell survival relative to control)” value worked out at 92%.

In the case of `CCn1c2ccccc2c2cc(Nc3cccc(-c4cccc(N(C)C)c4)n3)ccc21` [Cmpd 104, 9H-carbazol-3-amine, N-[6-[3-(dimethylamino)phenyl]-2-pyridinyl]-9-ethyl-], the “% neuroprotection (cell survival relative to control)” value came out at 89%. Further, the IC50 (Mus musculus, Neuron) came to 0.09 µM.

For `CN(C)c1cccc(-c2ccc(Nc3ccc4c(c3)OCCO4)nc2)c1` [Cmpd 76], the “% neuroprotection (cell survival relative to control)” value worked out at 95%.
